Reference: patent US20030022856A1, “Method for sustained release local delivery of drugs for ablation of unwanted tissue” (The Regents Of The University of Michigan, priority 2001, published 2003)

System: organ cultured adipose tissue (epididymal fat tissue)
Assay: Adipose organ culture apoptosis assay (Bax immunostaining)
Type: cell-based, rat
Settings: seven days incubation, 1 μg TNF-α
Protocol: Epididymal fat tissue was excised and cut into pieces (1 cm^3), and cultured. Briefly, tissue was placed in Dulbecco's Modified Eagle Medium containing 10% fetal bovine serum and penicillin/streptomycin, and incubated at 37° C. Samples (n=3) were injected with PBS, TNF-α protein (1 μg), blank microspheres, or microspheres containing TNF-α (total 1 μg TNF-α) and incubated at 37° C. After 3 or 7 days, the tissue was rinsed 1× with PBS, placed in 3.7% formaldehyde overnight and stored in 70% ethanol prior to sectioning for histology.
Tissue samples were bisected and subjected to butyl processing and paraffinization by standard procedures, at the histology core facility at the University of Michigan School of Dentistry. This process removes all lipids droplets from the tissue, enabling reproducible and rapid staining. […] Samples were counterstained with hematoxylin, imaged using a Nikon Eclipse E800, and Bax positive and negative cells were counted manually from at least 10 randomly chosen fields. Data were subjected to statistical analysis to determine the significance of the difference (P<0.05) among the measured population proportions of Bax positive cells, using a binomial equation. […]

With “tumor necrosis factor-alpha [TNF-α protein]” the “Bax staining of adipose tissue” value was “high levels of staining” and the “percentage of Bax positive cells (apoptotic cells)” value (1 cm^3 explanted tissue) was 54%.
